{"source": "ChEMBL document CHEMBL4385604", "about": "“Identification of Pyrrolo[2,3- d]pyrimidine-Based Derivatives as Potent and Orally Effective Fms-like Tyrosine Receptor Kinase 3 (FLT3) Inhibitors for Treating Acute Myelogenous Leukemia” (J Med Chem, 2019)", "key": {"MV4-11 [1]": {"system": "MV4-11", "assay": "Induction of apoptosis in human MV4-11 cells assessed as late apoptotic cells at 1 nM after 48 hrs by Annexin V/propidium iodide staining based flow cytometry (reference value: 2.83%)", "type": "functional"}, "MV4-11 [2]": {"system": "MV4-11", "assay": "Cell cycle arrest in human MV4-11 cells assessed as accumulation at G0/G1 phase at 3 nM after 24 hrs by propidium iodide staining-based flow cytometric analysis (reference value: 48.76%)", "type": "functional"}, "MOLM-13 [3]": {"system": "MOLM-13", "assay": "Induction of apoptosis in human MOLM13 cells assessed as late apoptotic cells at 10 uM after 48 hrs by Annexin V/propidium iodide staining based flow cytometry (reference value: 5.52%)", "type": "functional"}, "MOLM-13 [4]": {"system": "MOLM-13", "assay": "Cell cycle arrest in human MOLM13 cells assessed as accumulation at S phase at 1 nM after 24 hrs by propidium iodide staining-based flow cytometric analysis (reference value: 41.95%)", "type": "functional"}, "Homo sapiens [5]": {"species_on_record": "Homo sapiens", "assay": "Selectivity ratio of IC50 for recombinant human c-Kit (544 to end residues) to IC50 for recombinant human FLT3 (564 to end residues)"}, "MV4-11 [6]": {"system": "MV4-11", "assay": "Induction of apoptosis in human MV4-11 cells assessed as early apoptotic cells at 10 nM after 48 hrs by Annexin V/propidium iodide staining based flow cytometry (reference value: 2.76%)", "type": "functional"}, "Homo sapiens [7]": {"species_on_record": "Homo sapiens", "assay": "Inhibition of MAPK in human MOLM13 cells assessed as ratio of phosphorylated ERK to beta-actin level at 100 nM after 2 hrs by Western blot analysis relative to control", "type": "cell-based"}, "MV4-11 [8]": {"system": "MV4-11", "assay": "Induction of apoptosis in human MV4-11 cells assessed as viable cells at 100 nM after 48 hrs by Annexin V/propidium iodide staining based flow cytometry (reference value: 94.4%)", "type": "functional", "conditions": "MV4-11, 48 h, read-out: Activity"}, "MOLM-13 [9]": {"system": "MOLM-13", "assay": "Cell cycle arrest in human MOLM13 cells assessed as accumulation at G2/M phase at 1 nM after 24 hrs by propidium iodide staining-based flow cytometric analysis (reference value: 13.52%)", "type": "functional"}, "MOLM-13 [10]": {"system": "MOLM-13", "assay": "Induction of apoptosis in human MOLM13 cells assessed as viable cells at 10 nM after 48 hrs by Annexin V/propidium iodide staining based flow cytometry (reference value: 88.2%)", "type": "functional", "conditions": "MOLM-13, 48 h, read-out: Activity"}, "MOLM-13 [11]": {"system": "MOLM-13", "assay": "Induction of apoptosis in human MOLM13 cells assessed as necrotic cells at 1 nM after 48 hrs by Annexin V/propidium iodide staining based flow cytometry (reference value: 0.29%)", "type": "functional"}, "MV4-11 [12]": {"system": "MV4-11", "assay": "Cell cycle arrest in human MV4-11 cells assessed as accumulation at G0/G1 phase at 1 nM after 24 hrs by propidium iodide staining-based flow cytometric analysis (reference value: 48.76%)", "type": "functional"}, "MV4-11 [13]": {"system": "MV4-11", "assay": "Induction of apoptosis in human MV4-11 cells assessed as late apoptotic cells at 10 nM after 48 hrs by Annexin V/propidium iodide staining based flow cytometry (reference value: 2.83%)", "type": "functional"}, "MV4-11 [14]": {"system": "MV4-11", "assay": "Induction of apoptosis in human MV4-11 cells assessed as early apoptotic cells at 100 nM after 48 hrs by Annexin V/propidium iodide staining based flow cytometry (reference value: 2.76%)", "type": "functional"}, "MV4-11 [15]": {"system": "MV4-11", "assay": "Inhibition of MAPK in human MV4-11 cells assessed as ratio of phosphorylated ERK to beta-actin level at 100 nM after 2 hrs by Western blot analysis relative to control", "type": "cell-based"}, "MOLM-13 [16]": {"system": "MOLM-13", "assay": "Induction of apoptosis in human MOLM13 cells assessed as early apoptotic cells at 10 uM after 48 hrs by Annexin V/propidium iodide staining based flow cytometry (reference value: 5.97%)", "type": "functional"}, "MOLM-13 [17]": {"system": "MOLM-13", "assay": "Cell cycle arrest in human MOLM13 cells assessed as accumulation at G0/G1 phase at 30 nM after 24 hrs by propidium iodide staining-based flow cytometric analysis (reference value: 44.53%)", "type": "functional"}, "MOLM-13 [18]": {"system": "MOLM-13", "assay": "Induction of apoptosis in human MOLM13 cells assessed as viable cells at 100 nM after 48 hrs by Annexin V/propidium iodide staining based flow cytometry (reference value: 88.2%)", "type": "functional", "conditions": "MOLM-13, 48 h, read-out: Activity"}, "MV4-11 [19]": {"system": "MV4-11", "assay": "cells", "conditions": "Homo sapiens, MV4-11, 72 h", "description": "Antiproliferative activity against human MV4-11 cells harboring FLT3-ITD mutant measured after 72 hrs by MTT assay"}, "MV4-11 [20]": {"system": "MV4-11", "assay": "Induction of apoptosis in human MV4-11 cells assessed as late apoptotic cells at 100 nM after 48 hrs by Annexin V/propidium iodide staining based flow cytometry (reference value: 2.83%)", "type": "functional"}, "MV4-11 [21]": {"system": "MV4-11", "assay": "Induction of apoptosis in human MV4-11 cells assessed as early apoptotic cells at 1 nM after 48 hrs by Annexin V/propidium iodide staining based flow cytometry (reference value: 2.76%)", "type": "functional"}, "MOLM-13 [22]": {"system": "MOLM-13", "assay": "Induction of apoptosis in human MOLM13 cells after 48 hrs by Annexin V/propidium iodide staining-based flow cytometry", "type": "functional, cell-based"}, "[23]": {"molecular_target": "Receptor-type tyrosine-protein kinase FLT3 (Homo sapiens) (UniProt P36888)", "assay": "Inhibition of FLT3 autophosphorylation in human MV4-11 cells assessed as ratio of phosphorylated FLT3 to beta-actin level at 100 nM after 2 hrs by Western blot analysis relative to control", "type": "cell-based"}, "MOLM-13 [24]": {"system": "MOLM-13", "assay": "Cell cycle arrest in human MOLM13 cells assessed as accumulation at S phase at 3 nM after 24 hrs by propidium iodide staining-based flow cytometric analysis (reference value: 41.95%)", "type": "functional"}, "[25]": {"molecular_target": "Receptor-type tyrosine-protein kinase FLT3 (Homo sapiens, UniProt P36888, D835H)", "assay": "Binding affinity to human partial length FLT3 D835H mutant (V592 to Y969 residues) expressed in Escherichia coli after 1 hr by qPCR analysis"}, "MV4-11 [26]": {"system": "MV4-11", "assay": "Antitumour activity against human MV4-11 cells xenografted in NOD/SCID mouse assessed as tumour growth inhibition at 10 mg/kg, po qd for 18 days measured every two days during compound dosing by caliper method relative to control", "type": "functional", "conditions": "MV4-11, po, read-out: TGI"}, "MOLM-13 [27]": {"system": "MOLM-13", "assay": "Cell cycle arrest in human MOLM13 cells assessed as accumulation at G2/M phase at 10 nM after 24 hrs by propidium iodide staining-based flow cytometric analysis (reference value: 13.52%)", "type": "functional"}, "[28]": {"molecular_target": "Receptor-type tyrosine-protein kinase FLT3 (Homo sapiens) (UniProt P36888)", "assay": "Inhibition of FLT3 autophosphorylation in human MOLM13 cells assessed as ratio of phosphorylated FLT3 to beta-actin level at 30 nM after 2 hrs by Western blot analysis relative to control", "type": "cell-based"}, "MV4-11 [29]": {"system": "MV4-11", "assay": "Induction of apoptosis in human MV4-11 cells assessed as late apoptotic cells at 1 uM after 48 hrs by Annexin V/propidium iodide staining based flow cytometry (reference value: 2.83%)", "type": "functional"}, "MOLM-13 [30]": {"system": "MOLM-13", "assay": "Induction of apoptosis in human MOLM13 cells assessed as late apoptotic cells at 10 nM after 48 hrs by Annexin V/propidium iodide staining based flow cytometry (reference value: 5.52%)", "type": "functional"}, "[31]": {"molecular_target": "Receptor-type tyrosine-protein kinase FLT3 (Homo sapiens) (UniProt P36888)", "assay": "Inhibition of FLT3 autophosphorylation in human MOLM13 cells assessed as ratio of phosphorylated FLT3 to beta-actin level at 100 nM after 2 hrs by Western blot analysis relative to control", "type": "cell-based"}, "MV4-11 [32]": {"system": "MV4-11", "assay": "Induction of apoptosis in human MV4-11 cells assessed as viable cells at 10 uM after 48 hrs by Annexin V/propidium iodide staining based flow cytometry (reference value: 94.4%)", "type": "functional", "conditions": "MV4-11, 48 h, read-out: Activity"}, "[33]": {"molecular_target": "Receptor-type tyrosine-protein kinase FLT3 (Homo sapiens, UniProt P36888, D835Y)", "assay": "Binding affinity to human partial length FLT3 D835Y mutant (Q580 to Y969 residues) expressed in Escherichia coli after 1 hr by qPCR analysis"}}, "note": "pIC50, pKd: −log10 of the molar value.", "data": [{"compound": "C=CCn1cc(-c2ccc(NC(=O)Nc3cc(C(C)(C)C)on3)cc2)c2c(N)ncnc21", "values": [{"measurement": "Activity", "setting": "MV4-11 [1]", "result": 4.62, "unit": "%"}, {"measurement": "Activity", "setting": "MV4-11 [2]", "result": 87.11, "unit": "%"}, {"measurement": "Activity", "setting": "MOLM-13 [3]", "result": 98.5, "unit": "%"}, {"measurement": "Activity", "setting": "MOLM-13 [4]", "result": 35.23, "unit": "%"}, {"measurement": "Ratio IC50", "setting": "Homo sapiens [5]", "result": "> 40"}, {"measurement": "Activity", "setting": "MV4-11 [6]", "result": 9.57, "unit": "%"}, {"measurement": "fold change (FC)", "setting": "Homo sapiens [7]", "result": 0.12}, {"measurement": "viability at 0.1 µM", "setting": "MV4-11 [8]", "result": 75.7, "unit": "%"}, {"measurement": "Activity", "setting": "MOLM-13 [9]", "result": 11, "unit": "%"}, {"measurement": "viability at 0.01 µM", "setting": "MOLM-13 [10]", "result": 66.1, "unit": "%"}, {"measurement": "Activity", "setting": "MOLM-13 [11]", "result": 0.76, "unit": "%"}, {"measurement": "Activity", "setting": "MV4-11 [12]", "result": 50.94, "unit": "%"}, {"measurement": "Activity", "setting": "MV4-11 [13]", "result": 11, "unit": "%"}, {"measurement": "Activity", "setting": "MV4-11 [14]", "result": 11.3, "unit": "%"}, {"measurement": "fold change (FC)", "setting": "MV4-11 [15]", "result": 0}, {"measurement": "Activity", "setting": "MOLM-13 [16]", "result": 0.61, "unit": "%"}, {"measurement": "Activity", "setting": "MOLM-13 [17]", "result": 94.68, "unit": "%"}, {"measurement": "viability at 0.1 µM", "setting": "MOLM-13 [18]", "result": 62.8, "unit": "%"}, {"measurement": "pIC50", "setting": "MV4-11 [19]", "result": 10.05}, {"measurement": "Activity", "setting": "MV4-11 [20]", "result": 12.7, "unit": "%"}, {"measurement": "Activity", "setting": "MV4-11 [21]", "result": 2.56, "unit": "%"}, {"measurement": "Activity", "setting": "MOLM-13 [22]", "result": "Dose-dependent effect"}, {"measurement": "fold change (FC)", "setting": "[23]", "result": 0}, {"measurement": "Activity", "setting": "MOLM-13 [24]", "result": 11.83, "unit": "%"}, {"measurement": "pKd", "setting": "[25]", "result": 8.29}, {"measurement": "inhibition in vivo at 10 mg/kg", "setting": "MV4-11 [26]", "result": 100, "unit": "%"}, {"measurement": "Activity", "setting": "MOLM-13 [27]", "result": 2.37, "unit": "%"}, {"measurement": "fold change (FC)", "setting": "[28]", "result": 0}, {"measurement": "Activity", "setting": "MV4-11 [29]", "result": 24.8, "unit": "%"}, {"measurement": "Activity", "setting": "MOLM-13 [30]", "result": 18.3, "unit": "%"}, {"measurement": "fold change (FC)", "setting": "[31]", "result": 0}, {"measurement": "viability at 10 µM", "setting": "MV4-11 [32]", "result": 18.1, "unit": "%"}, {"measurement": "pKd", "setting": "[33]", "result": 8.11}]}]}
